The text below walks through data of article PMC7699199, “Identification and Validation of Carbonic Anhydrase II as the First Target of the Anti-Inflammatory Drug Actarit” (Biomolecules, 2020).

One may read the IC50 as the midpoint of a concentration-inhibition curve.

This test addresses T1, carbonic anhydrase II (CAII) (Homo sapiens, UniProt P00918).
T1 construct: gene CA2
Kind of test: Wilbur-Anderson electrometric CO2 hydration assay with recombinant human CAII. The class given is biochemical.

`CC(=O)Nc1ccc(CC(=O)O)cc1` [actarit]: the IC50 worked out at 422 nM.
